Data: US20230158057A1, “COMPOSITIONS AND METHODS FOR THE TREATMENT OF PAIN” (Duke University, priority 2020, published 2023)

Key:
[1] = system: female C57BL/6 mice with intrafemoral E0771 breast carcinoma; assay: E0771 breast cancer-induced bone cancer pain model; assay type: in vivo, mouse; details: for bone destruction scored from X-ray images: E0771-bearing femora; for body weight / mechanical allodynia, cold allodynia and spontaneous pain: E0771 model
Experimental: Bone cancer pain model. The murine cell lines LLC1, LL/2-Luc2 or E0771 were lightly digested using 0.05% trypsin, followed by centrifugation to remove poorly digested cell clusters. Cells were then resuspended in PBS at a concentration of 1×10^8 cells/ml. The inoculation was performed as previously described (Wang, K. et al. “PD-1 blockade inhibits osteoclast formation and murine bone cancer pain.” The Journal of clinical investigation, (2020); Wang, Z. et al. “Anti-PD-1 treatment impairs opioid antinociception in rodents and nonhuman primates.” Sci Transl Med 12 (2020)). Briefly, mice were anesthetized with 4% isoflurane and the left leg was shaved and the skin disinfected with 10% povidone-iodine and 75% ethanol. A superficial incision (0.5-1 cm) was made near the knee joint, exposing the patellar ligament. A new 25-gauge needle was inserted at the site of the intercondylar notch of the left femur into the femoral cavity, which was then replaced with a 10 μL microinjection syringe containing a 2 μL suspension of tumor cells (2×10^5) followed by 2 μL absorbable gelatin sponge solution to seal the injection site. The syringe contents were slowly injected into the femoral cavity over a 2-minute interval. To prevent further leakage of tumor cells outside of the bone cavity, the outer injection site was sealed with silicone adhesive (Kwik-Sil, World Precision Instruments, US). Animals with surgery related movement dysfunction or with outside bone tumor injection were excluded from the study.
Behavior tests. All the behavioral tests were conducted in a blinded manner and performed during between the hours of 9:00-16:00. Animals were habituated in a light and humidity controlled testing environment for at least 2 days prior to baseline testing. For Von Frey testing, mice were confined to individual 5×5 cm boxes placed on an elevated wire grid. A blinded experimenter stimulated their hindpaws using a series of von Frey filaments with logarithmically increasing stiffness (0.02-2.56 g, Stoelting). Each filament was applied perpendicularly to the central plantar surface. The 50% paw withdrawal threshold was determined using Dixon's up-down method. In addition, we also measured paw withdrawal frequency to repeated stimulation (10 times, with ˜1-2 minutes between each stimulation) using a subthreshold 0.16 g von Frey filament, which is a more sensitive method to detect mechanical allodynia. To measure cold allodynia, mice were similarly isolated to individual boxes on an elevated mesh floor, and a drop (˜20-30 μl) of acetone was applied to the plantar hindpaw. […] To measure locomotor function, we performed open field testing in which mice were placed in the center of a 45×45 cm chamber and locomotor activity was recorded by an overhead webcam connected to a laptop computer, and animals' movements were automatically tracked for 30 minutes using ANY-Maze. The total distance traveled and mean speed during the 30-minute period were analyzed.
In vivo X-ray radiography. Osteolytic bone destruction was continuously evaluated by radiography using the MultiFocus by Faxitron system (Faxitron Bioptics LLC, Tucson, Ariz.). Radiographs of tumor-bearing femora were rated for bone destruction on a 0-5 score scale based on previous study: 0 for normal bone at baseline without tumor inoculation; 1 for one to three radiolucent lesions indicative of bone destruction compared to baseline; 2 for increased number of lesions (three to six lesions) and loss of medullary bone; 3 for loss of medullary bone and erosion of cortical bone; 4 for full-thickness unicortical bone loss; 5 for full-thickness bicortical bone loss and displaced skeletal fracture. All radiographic image quantifications were completed by an experimenter who was blinded to the experimental conditions.
STING agonist treatment protects against breast cancer induced bone pain and bone destruction. […]

[2] = system: mice with LLC bone cancer pain (BCP); assay: Syngeneic bone cancer pain (BCP) model, i.t. treatment; assay type: in vivo, mouse
Experimental: Mouse pain models: The chemotherapy-induced peripheral neuropathy (CIPN) model of chronic neuropathic pain was established as we have done previously, using 8-10-week-old CD-1 (strain #022, Charles River) mice injected with paclitaxel (2 mg/kg i.p.) every other day, with 4 injections total. The chronic constriction injury (CCI) model of neuropathic pain was also produced using 8-10-week-old CD-1 under isoflurane anesthesia. Briefly, the right sciatic nerve was exposed above the hip and two ligatures (7-0 Prolene) were placed around the nerve 1 mm apart located proximal to the trifurcation. Ligatures were loosely tied until a subtle flick of the ipsilateral hind limb was observed. CD-1 mice were also used to establish the SNI model, which was generated by tightly ligating the tibial and common peroneal nerves followed by transection and removal of a ˜3 mm portion of the nerve. The sural nerve was left intact and contact or stretching of this nerve was avoided . To establish the syngeneic bone cancer pain (BCP) model, 8-10-week-old C57BL/6J mice (strain #000664, Jackson Labs) were utilized, as the Lewis lung carcinoma cell line LLC1 (LL/2; ATCC CRL-1642) was originally generated in C57BL/6J mice. Mice were anesthetized with isoflurane and the left leg was shaved, disinfected with 10% povidone-iodine, and a 1 cm superficial incision was made to expose the patellar ligament. A 25-gauge needle was inserted at the intercondylar notch of the left femur into the femoral cavity, followed by needle replacement with a 10 μl Hamilton syringe microinjector containing a 2 μl suspension of LLC cells (2×10^5 cells) followed by a 2 μl gelatin sponge solution to enable closure of the injection site. All mice were housed and monitored in accordance with AAALAC standards and Duke IACUC guidelines that pertained to each model.
Reflexive-based sensory testing in mice: All behavioral testing in mice was performed in a specialized humidity- and light-controlled mouse behavior facility maintained at 21-24° C., with testing conducted between the hours of 8:00-16:00. Mice were habituated to the testing environment for at least 2 days prior to baseline testing. All tests were performed by an experimenter who was blinded to experimental conditions, including genotypes and drug treatment. For multi-day experiments using STING agonists, mice were tested in the same room at approximately the same time each day. To measure mechanical sensitivity, mice were confined to individual chambers with non-transparent borders on an elevated mesh rack, preventing mice from visualizing or interacting with one another during the testing period. […] We determined the 50% paw withdrawal threshold using the up-down method. […]

SMILES	bone destruction scored from X-ray images [1]	body weight [1]	mechanical allodynia, cold allodynia and spontaneous pain [1]	cold allodynia [2]	tumor burden [2]
Cc1ccc2c(=O)c3cccc(CC(=O)O)c3oc2c1C [DMXAA, 2-(5,6-dimethyl-9-oxo-9H-xanthen-4-yl)acetic acid]	could also attenuate bone destruction	had no effect on body weight	could markedly reduce mechanical allodynia, cold allodynia and spontaneous pain	suppressed cold allodynia	tumor burden was unaffected
Nc1ncnc2c1ncn2[C@@H]1O[C@@H]2COP(=O)([S-])O[C@@H]3[C@H](O)[C@@H](COP([O-])(=S)O[C@H]2[C@H]1O)O[C@H]3n1cnc2c(N)ncnc21.[Na+].[Na+] (stereo partly drawn) [ADU-S100, (2′-5′)-[P(R)]-5′-O-[(R)-hydroxymercaptophosphinyl]-P-thioadenylyl-adenosine cyclic dinucleotide]	could also attenuate bone destruction	had no effect on body weight	could markedly reduce mechanical allodynia, cold allodynia and spontaneous pain	suppressed cold allodynia	tumor burden was unaffected
